Where “and” joins values, the source holds several entries; their conditions need not be identical. Equal entries are not always repeated. Where two headings read alike, the source gives them in different places.
Experiments:
[1] = system: PC-3 (prostate); assay: Proliferation EC50 on SISgel vs monolayer; type: cell-based; settings: n = 6-8
Description: The libraries were obtained from the NCI (Diversity Library I) comprised of 2,918 compounds and a 10,000 compound diversity library from ChemBridge, Inc. (DiverSet-EXP). The NCI library is no longer available in the form used here, but how it was constructed is described (http://dtp.nci.nih.gov/branches/dscb/diversity_explanation.html). The ChemBridge library is a subset (Set Code NM1024) of the full 50,000 compound library (http://www.chembridge.com/screening_libraries/diversity_libraries/). Compounds were diluted to 100 μM before use. SISgel was prepared as described previously from powdered porcine small intestine submucosa obtained from Cook Biotech (W. Lafayette, IN). It is a natural product that is used extensively in tissue engineering as a bioscaffold. J82 bladder cancer cells and other cell lines were obtained from the ATCC (Bethesda, MD). The basic principle is that cells grown on any ECM are, in general, expected to show higher resistance to anticancer compounds than when grown on plastic. Therefore, compounds that show a higher activity toward cancer cells on a normal ECM than on a plastic surface would be candidates to target suppressed, micrometastatic cells. Efficacy in vitro was assessed by plating 30,000 cells in 50 μL of high glucose DMEM with penicillin-streptomycin and 10 % fetal calf serum on SISgel in a 96-well plate containing 50 μL of gelled SISgel per well. Cells were allowed to attach and assume the SISgel phenotype for 48 h. A matching plate without SISgel was prepared 24 h later by pipetting 3,000 cells in 100 μL of high glucose DMEM with penicillin-streptomycin and 10 % fetal calf serum into each well of 96 well plate. The cells were allowed to attach and grow for 24 h. These numbers of cells gave approximately equal replication rates at the time drug was added for cells grown on the plastic surface or SISgel as determined by the fraction of S-phase cells identified by flow cytometry. The cells were exposed to drug in fresh medium for 48 h, at which time the cell number was determined using the CFDA-AM cellular esterase proliferation assay (cat. #C1354, Life Technologies). For screening the results are reported as the ratio of cell count of cells on the plastic surface to the cell count on SISgel. An initial difference of 1.5 fold identified potential hits. All potential hits were confirmed in triplicate. Those compounds that replicated were confirmed by a full dose–response study yielding an EC50 using five wells per drug concentration. Data were analyzed using nonlinear regression to a sigmoid curve with Prism 4 (GraphPad Software, Inc., LaJolla, CA). Potential hits that were confirmed by dose–response using J82 were also tested with MDA-MB-435 breast cancer, PC-3 metastatic prostate cancer, Capan1 pancreatic cancer and the J82 bladder cancer cell lines.

[2] = system: MDA-MB-435-GFP cells; assay: Flank xenograft model of ECM-suppressed cells co-injected with SISgel; type: in vivo, nu/nu mice; settings: 45 mg/kg i.p. three times weekly for 3 weeks; 4 weeks after implantation
Description: The efficacy of DT320 was assessed using a flank xenograft model of ECM-suppressed cancer cells that we developed, as well as an orthotopic model of “triple-negative” breast cancer. All animal protocols were reviewed and approved by the OUHSC Institutional Animal Care and Use Committee according to criteria established by the NIH Office of Laboratory Animal Welfare, and animals were housed 5 per cage with enrichment (tubes) and wood chips in the AALAC-accredited OUHSC Animal Facility with a 12 h light/dark cycle. Animals had access to water and food ad libatum. Animals were monitored daily by trained facility personnel. In the flank model, GFP-labeled cells were co-injected with SISgel, which produces a suppressed, normalized phenotype that persists after the SISgel is resorbed, but which can re-emerge into active tumor growth after 30–60 days. Animals were all female nu/nu mice (NCI National Laboratory Frederick/Charles River animal production program). An optimized number of 5 × 10^5 GFP-labeled MDA-MB-435 cells in 100 μL DMEM medium, without additives, were mixed with 100 μL of SISgel and were kept on ice until injection to prevent polymerization of the SISgel. […] The cells injected into the flanks remained as a non-growing spot, as assessed by fluorometry of the spots and the lack of mitoses seen in tissue sections, for about 3–5 weeks before some began resuming malignant growth. […]

[3] = system: MDA-MB-435 cells; assay: Western blot of protein levels after treatment; type: cell-based
Description: Protein content of selected proteins identified by reversed phase protein array (see supplementary materials) as being involved mechanistically in the response to DT320 was assayed by Western blot as described using the following antibodies. The following antibodies were purchased from Cell Signaling Technology (Beverly, MA) and diluted per manufacturer’s directions: Rabbit mAb Anti-Phospho-AKT (Ser473) (D9E) XP® #4060, Rabbit mAb anti-p38 MAPK (D13E1) XP® #8690, Mouse mAb anti-Phospho-SAPK/JNK (Thr183/Tyr185) (G9) #9255, Rabbit mAb anti-Phospho-CHK1 (Ser345) (133D3) #2348, Rabbit polyclonal anti-Phospho-CHK2 (Thr68) Antibody #2661, Rabbit polyclonal anti-BAX Antibody #2772, Rabbit polyclonal anti-Vinculin Antibody #4650, Mouse mAb anti-Cyclin D1 (DCS6) #2926, Rabbit mAb anti-Cyclin E2 (D52F9) b #3741, […], Mouse mAb anti-Cyclin B1 (V152) #4135, Rabbit mAb anti-cleaved PARP (Asp214) (D64E10) XP® #5625, Rabbit mAb anti-cleaved Caspase-3 (Asp175) (5A1E) #9654, Rabbit mAb anti-Nanog (D73G4), #4903; Rabbit mAb anti-Oct4 (C52G3) #2890; and Rabbit mAb anti-Sox2 (D6D9) #3579. Specificity of each antibody is illustrated on the company’s web page. For negative controls, pre-immune rabbit IgG was used. No signal was detected in the control IgG samples. No intensities or contrast were modified, but the appropriate bands were cut out using PhotoShop to prepare composite gel images.
To elucidate the mechanism of DT310 and DT320, cell cycle analysis and Western blotting was performed. The proteins for Western blot were selected from preliminary results using reverse phase protein array (RPPA) for DT320 and DT321 treated MDA-MB-435 and T24 cells. […] Proteins within these clusters showing the largest differences in protein expression and that were related to known anticancer drug action were confirmed by Western blot. Docetaxel was used as a positive control because it is known to induce a cell cycle arrest and apoptosis signature.

[4] = PC-3 monolayer, read-out: EC50 Monolayer
[5] = PC-3 on SISgel, read-out: EC50 SISgel

Row | SMILES | EC50 [1, 4] [µM] | EC50 [1, 5] [µM] | flank xenografts in which ECM-suppressed cells were extirpated / spots disappeared [2] | Cyclin D1 (CCND1) expression [3] | cleaved caspase 3 ([3]; 48 h)
1 | COc1cccc2c1C(=O)c1c(O)c3c(c(O)c1C2=O)C[C@@](O)(C(=O)CO)C[C@@H]3O[C@H]1C[C@H](N)[C@H](O)[C@H](C)O1 [Doxorubicin, reference compound] | 104 ± 6.1 | 102 ± 7 |  |  | 
2 | O=S(=O)([O-])c1cc(O)c2c(O)c(N=Nc3cccc4ccccc34)c(S(=O)(=O)[O-])cc2c1.[Na+].[Na+] [DT320, 4,5-Dihydroxy-3-(1-naphthalenylazo)-2,7-naphthalenedisulfonic acid disodium salt] | 41.5 ± 4.1 | 19.7 ± 2 | six of eight and 6 of 8 | induced | increased signal

Reference: PMC4434572, “Identification of novel drugs to target dormant micrometastases” (BMC Cancer, 2015)
